The values below come from patent US20220213433A1, “Three-Dimensional Cross-Linked Scaffolds of Cord Blood Plasma and Their Use” (SANFORD HEALTH, priority 2019, published 2022).

“Also recorded” adds a separate entry of the source.

The nature of data set [1]: time to achieve matrix cross-linking of cord blood plasma. Format: physicochemical, human. As for the experimental part: (§1) FIG. 2(a-b). Chemical characterization of cord blood plasma 3D culture model referred as InvitroWOMB (iWOMB).
(§2) Referring to FIG. 2, cross-linking time was assessed by measuring the time necessary to achieve matrix cross-linking using three relevant cross-linkers of the blood coagulation process including thrombin (0-5 mg/ml) and CaCl2 (0-10 mg/ml). The stabilization effects of preventing fibrin degradation and stability improvement in the scaffold was assessed by surveying an antifibrinolytic agent such as tranexamic acid (0-5 mg/ml). The stability of the scaffold was studied by measuring each scaffold weight at day 0 and again measuring scaffold weight at the conclusion of a 3 week time period.

The nature of data set [2]: scaffold stability: scaffold weight at day 0 and after 3 weeks. Format: physicochemical, human. Particulars: tranexamic acid in the range of 5 mg/ml (tested 0-5 mg/ml); 3 week period. As for the experimental part:
as §1, §2

A further data set deals with GDM-exposed hu-MSC. The data set can be described thus: hu-MSC growth assay with metformin, live cells counted by Trypan blue. Format: cell-based, human. The settings on record: 25 μM metformin; 20K cells/well; 72 hour cell counts. The text has this: (§3) FIG. 9(a-d). Precision capabilities. (a) Using a custom human antibody array we measured relative expression of cytokines and growth factors in cord plasma for scaffolds from subjects with Type 1 (T1D), Type 2 (T2D) and gestational diabetes (GDM). Bar graphs represent relative expression by densitometry compared to negative control (membrane background). (b) Hu-MSC from control, T1D, T2D and GDM donors (n=2-3/group) were uniformly plated (50K live cells/well) in stem cell media to collagen-coated, 24-well plates. Trypan blue was used to count live cells every 24 hours and growth was measured and compared. Bar graphs represent fold change from baseline to 72 hours; *p<0.05 by one-way ANOVA with Dunnett post-test, (c) Control hu-MSCs were treated with metformin at increasing doses (0, 25, 50 and 100 μM) and growth was followed as previously described. […] Bar graphs represent the number of cells/well remaining at 72 hours after initial plating of 20K cells/well.
(§4) To determine whether iWOMB is a useful tool for precision-based assays, we used umbilical cord plasma and hu-MSC from control and diabetic pregnancy to identify diabetes-related differences in proteins in the DME and/or programmed cell fate. […] Using our customized antibody array as detailed above (FIG. 8), we compared relative expression of cytokines and growth factors in cord plasma protein. Just as fibrinogen levels are higher in cord plasma from diabetic pregnancies, so are other factors. Specifically, umbilical cord plasma cytokines (IL-6, IL-10), insulin like growth factor −1 (IGF-1) and hepatocyte growth factor (HGF) from Type 1 diabetic pregnancy (TID) are higher than in plasma from Type 2 (T2D) and gestational diabetes (GDM) (FIG. 9a). […] Every 24 hours cells were detached using 0.25% trypsin/EDTA and live cells were counted using Trypan blue staining and a hemocytometer. Live cells were recorded at each time point for […]. […] Every 24 hours cells were detached using 0.25% trypsin/EDTA and live cells were counted using Trypan blue and a hemocytometer. Live cells were recorded at each time point for 72 hours. […]

The test system of the next data set is control hu-MSC. The data set is described as above. Format: cell-based, human.
Text: as §3, §4

As to `[Ca+2].[Cl-].[Cl-]` [CaCl2, calcium chloride], in data set [1] (CaCl2 1.25 to 5 mg/ml (tested 0-10 mg/ml)), the cross-linking time result was “fastest crosslinking”. `NC[C@H]1CC[C@H](C(=O)O)CC1` [Tranexamic acid, tranexamic acid]: in data set [2], the “scaffold stability (prevention of fibrin degradation)” value is “best improvement in scaffold stability”. Take `CN(C)C(=N)N=C(N)N` [metformin]: the “growth of GDM exposed hu-MSC” value in the data set on GDM-exposed hu-MSC is on record as “increased growth; also recorded: improves”. In the data set with control hu-MSC (25 μM metformin (level reported in umbilical cord blood), 20K cells/well, 72 hours), the “growth of control hu-MSC” value was “does not impair growth”. For the same compound, the “hu-MSC cell growth (number of live cells over time)” value in the data set on control hu-MSC (normal/control hu-MSC, metformin 0, 25, 50, 100 uM, live cells counted every 24 h for 72 hours) is given as “impairs hu-MSC growth in a dose dependent manner; also recorded: dose-dependent decline in cell growth”. Regarding thrombin, in data set [1] (thrombin 0.5 to 5 mg/ml (tested 0-5 mg/ml)), the cross-linking time entry is recorded as “fastest crosslinking”.
